Organism: Rattus norvegicus
Experiment: DrugMatrix - Regimen: Daily Repeat
Type: toxicity, organism-based, Sprague-Dawley
Parameters: regimen Daily Repeat, gender Male, age 6-8 weeks
Settings: in vivo, po, route oral GAVAGE, vehicle 100 % SALINE; for ABSOLUTE BASOPHIL / ABSOLUTE EOSINOPHIL / ABSOLUTE LYMPHOCYTE / ABSOLUTE MONOCYTE / ABSOLUTE SEGMENTED NEUTROPHIL / BASOPHIL / EOSINOPHIL / ERYTHROCYTE COUNT / HEMATOCRIT / HEMOGLOBIN / LEUKOCYTE COUNT / MEAN CORPUSCULAR HEMOGLOBIN / MEAN CORPUSCULAR HEMOGLOBIN CONCENTRATION / MEAN CORPUSCULAR VOLUME / MONOCYTE / NEUTROPHIL / NUCLEATED RED BLOOD CELLS / PLATELET COUNT: tissue Blood; for ALANINE AMINOTRANSFERASE / ALBUMIN / ALKALINE PHOSPHATASE / ASPARTATE AMINOTRANSFERASE / BLOOD UREA NITROGEN / CARBON DIOXIDE / CHLORIDE / CHOLESTEROL / CREATINE PHOSPHOKINASE / CREATININE / GLUCOSE / LACTATE DEHYDROGENASE / LIPASE / PHOSPHORUS / POTASSIUM / SODIUM / TOTAL BILIRUBIN / TOTAL PROTEIN / URIC ACID: tissue Plasma
[1] = 40 mg/kg, 120 h, dose level Low, time 5 day
[2] = 195 mg/kg, 72 h, dose level High, time 3 day
[3] = 195 mg/kg, 120 h, dose level High, time 5 day

Oc1ccccc1O [CATECHOL]
ABSOLUTE BASOPHIL [1]: 0 CELLS/uL
ABSOLUTE EOSINOPHIL [1]: 30.67 CELLS/uL
ABSOLUTE LYMPHOCYTE [1]: 8416.67 CELLS/uL
ABSOLUTE MONOCYTE [1]: 0 CELLS/uL
ABSOLUTE SEGMENTED NEUTROPHIL [1]: 952.67 CELLS/uL
BASOPHIL [1]: 0%
EOSINOPHIL [1]: 0.33%
ERYTHROCYTE COUNT [1]: 5.53 x10E6/uL
HEMATOCRIT [1]: 33.83%
HEMOGLOBIN [1]: 13.17 G/DL
LEUKOCYTE COUNT [1]: 9.4 x10E3/uL
MEAN CORPUSCULAR HEMOGLOBIN [1]: 23.8 pg
MEAN CORPUSCULAR HEMOGLOBIN CONCENTRATION [1]: 38.93 G/DL
MEAN CORPUSCULAR VOLUME [1]: 61.13 fL
MONOCYTE [1]: 0%
NEUTROPHIL [1]: 10.67%
NUCLEATED RED BLOOD CELLS [1]: 0 /100WBC
PLATELET COUNT [1]: 1168.67 x10E3/uL
ALANINE AMINOTRANSFERASE [1]: 60.67 u/L
ALBUMIN [1]: 4.17 G/DL
ALKALINE PHOSPHATASE [1]: 318.33 u/L
ASPARTATE AMINOTRANSFERASE [1]: 89.67 u/L
BLOOD UREA NITROGEN [1]: 16 mg/dL
CARBON DIOXIDE [1]: 26 mmol/L
CHLORIDE [1]: 104.67 MEQ/L
CHOLESTEROL [1]: 77.67 mg/dL
CREATINE PHOSPHOKINASE [1]: 225.33 u/L
CREATININE [1]: 0.14 mg/dL
GLUCOSE [1]: 162 mg/dL
LACTATE DEHYDROGENASE [1]: 134.67 u/L
LIPASE [1]: 9 u/L
PHOSPHORUS [1]: 10.23 mg/dL
POTASSIUM [1]: 5.58 MEQ/L
SODIUM [1]: 152 MEQ/L
TOTAL BILIRUBIN [1]: 0.2 mg/dL
TOTAL PROTEIN [1]: 6.03 G/DL
URIC ACID [1]: 0.77 mg/dL
ABSOLUTE BASOPHIL [2]: 0 CELLS/uL
ABSOLUTE EOSINOPHIL [2]: 0 CELLS/uL
ABSOLUTE LYMPHOCYTE [2]: 16294.67 CELLS/uL
ABSOLUTE MONOCYTE [2]: 122.33 CELLS/uL
ABSOLUTE SEGMENTED NEUTROPHIL [2]: 1316.33 CELLS/uL
BASOPHIL [2]: 0%
EOSINOPHIL [2]: 0%
ERYTHROCYTE COUNT [2]: 5.5 x10E6/uL
HEMATOCRIT [2]: 33.6%
HEMOGLOBIN [2]: 13.2 G/DL
LEUKOCYTE COUNT [2]: 17.73 x10E3/uL
MEAN CORPUSCULAR HEMOGLOBIN [2]: 24 pg
MEAN CORPUSCULAR HEMOGLOBIN CONCENTRATION [2]: 39.27 G/DL
MEAN CORPUSCULAR VOLUME [2]: 61.13 fL
MONOCYTE [2]: 0.67%
NEUTROPHIL [2]: 7.33%
NUCLEATED RED BLOOD CELLS [2]: 0 /100WBC
PLATELET COUNT [2]: 1440 x10E3/uL
ALANINE AMINOTRANSFERASE [2]: 50.67 u/L
ALBUMIN [2]: 4.1 G/DL
ALKALINE PHOSPHATASE [2]: 278.67 u/L
ASPARTATE AMINOTRANSFERASE [2]: 78 u/L
BLOOD UREA NITROGEN [2]: 12.33 mg/dL
CARBON DIOXIDE [2]: 25 mmol/L
CHLORIDE [2]: 100.33 MEQ/L
CHOLESTEROL [2]: 73 mg/dL
CREATINE PHOSPHOKINASE [2]: 460.33 u/L
CREATININE [2]: 0.2 mg/dL
GLUCOSE [2]: 161.33 mg/dL
LACTATE DEHYDROGENASE [2]: 133.67 u/L
LIPASE [2]: 10.67 u/L
PHOSPHORUS [2]: 11.7 mg/dL
POTASSIUM [2]: 6.15 MEQ/L
SODIUM [2]: 140.17 MEQ/L
TOTAL BILIRUBIN [2]: 0.17 mg/dL
TOTAL PROTEIN [2]: 5.9 G/DL
URIC ACID [2]: 1.73 mg/dL
ABSOLUTE BASOPHIL [3]: 0 CELLS/uL
ABSOLUTE EOSINOPHIL [3]: 0 CELLS/uL
ABSOLUTE LYMPHOCYTE [3]: 12717.67 CELLS/uL
ABSOLUTE MONOCYTE [3]: 34 CELLS/uL
ABSOLUTE SEGMENTED NEUTROPHIL [3]: 981.67 CELLS/uL
BASOPHIL [3]: 0%
EOSINOPHIL [3]: 0%
ERYTHROCYTE COUNT [3]: 5.35 x10E6/uL
HEMATOCRIT [3]: 33.67%
HEMOGLOBIN [3]: 13.33 G/DL
LEUKOCYTE COUNT [3]: 13.73 x10E3/uL
MEAN CORPUSCULAR HEMOGLOBIN [3]: 24.93 pg
MEAN CORPUSCULAR HEMOGLOBIN CONCENTRATION [3]: 39.6 G/DL
MEAN CORPUSCULAR VOLUME [3]: 62.9 fL
MONOCYTE [3]: 0.33%
NEUTROPHIL [3]: 7%
NUCLEATED RED BLOOD CELLS [3]: 0 /100WBC
PLATELET COUNT [3]: 1267.33 x10E3/uL
ALANINE AMINOTRANSFERASE [3]: 63.67 u/L
ALBUMIN [3]: 4.47 G/DL
ALKALINE PHOSPHATASE [3]: 326 u/L
ASPARTATE AMINOTRANSFERASE [3]: 93 u/L
BLOOD UREA NITROGEN [3]: 15.33 mg/dL
CARBON DIOXIDE [3]: 27 mmol/L
CHLORIDE [3]: 102.67 MEQ/L
CHOLESTEROL [3]: 74.33 mg/dL
CREATINE PHOSPHOKINASE [3]: 321 u/L
CREATININE [3]: 0.14 mg/dL
GLUCOSE [3]: 145.33 mg/dL
LACTATE DEHYDROGENASE [3]: 130.67 u/L
LIPASE [3]: 10 u/L
PHOSPHORUS [3]: 10.1 mg/dL
POTASSIUM [3]: 6.03 MEQ/L
SODIUM [3]: 151 MEQ/L
TOTAL BILIRUBIN [3]: 0.2 mg/dL
TOTAL PROTEIN [3]: 6.43 G/DL
URIC ACID [3]: 0.73 mg/dL
